Assay results from patent US7718663B2, “Quinazoline derivatives and medicaments” (Nippon Shinyaku Co., Ltd., priority 2002, dated 2010).
pKi: −log10 of the molar value. Structures can show the parent of a compound that is named as a salt.

Legend:
ICR male mice = assay: Mouse eye-scratching behavior induced by serotonin; format: in vivo; settings: 0.5% test compound, 10 μl dropped into eye five minutes before 1% serotonin; counted for 10 minutes
Protocol: Effect on Mouse Eye-scratching Behavior Induced by Serotonin
After dropping 10 μl of 1% serotonin hydrochloride (hereinafter referred to as serotonin) into right eye of ICR male mice (4 to 6 weeks old), the number of eye-scratcing behavior induced by dropping of serotonin was measured for 10 minutes.
As the test compound, inventive compounds of Example 1, Example 2, Example 3, Example 6, Example 12, Example 29, Example 52, Example 364, Example 381 and Example 383 were used. Five minutes before dropping serotonin, 10 μl of each test compound was dropped. Distilled water as a solvent of the test compound was dropped as a control group.

[1] = biological target: T1, human nociceptin receptor (Homo sapiens, UniProt P41146); assay: Nociceptin receptor binding assay ([3H]nociceptin); settings: cell membrane of human nociceptin receptor-expressing cell, 0.08 nM [3H]nociceptin, 25° C. 60 minutes; read-out: Affinity for nociceptin receptors Ki value
T1 construct: expressed in transfected cells
Protocol: Nociceptin Receptor Binding Assay
A cell membrane suspension obtained from a human nociceptin receptor-expressing cell was prepared so that it contained 5 to 10 μg/mL of the membrane protein in a Tris buffer [50 mM Tris-HCl (pH7.8), 5 mM MgCl2, 1 mM EGTA [Ethylene Glycol Bis(β-aminoethylether)-N,N,N′,N′-tetraacetic Acid], 0.1% BSA (Bovine Serum Alubumin)]. To this, [^3H]nociceptin (diluted at the final concentration of 0.08 nM with the Tris buffer) and each test compound was added and the mixture was incubated at 25° C. for 60 minutes. Using a cell harvester and a washing solution [50 mM Tris-HCl (pH7.8), 4° C.], the membrane was recovered onto a GF/B filter which had been pretreated with 0.3% PEI (polyethylenimine), which was then washed further 3 times. The filter was transferred to a vial, to which a scintillator was added, and the radioactivity was measured using a liquid scintillation counter. Noted that a non-specific binding was regarded as a binding in the presence of 10 μM nociceptin, and a specific binding was obtained by subtracting the non-specific binding from the total binding. From a ratio of binding inhibition in the presence of the tested substance, an IC50 value was obtained, and was then used together with the Kd value for [^3H]nociceptin to calculate the Ki value for the tested substance.

rat μ opioid receptor = biological target: T2, rat μ opioid receptor (Rattus norvegicus, UniProt P33535); assay: μ opioid receptor binding assay ([3H]diprenorphine); settings: rat μ opioid receptor-expressing cell membrane, 0.5 nM [3H]diprenorphine, 25° C. 60 minutes; read-out: Affinity for μ receptors Ki value
T2 construct: expressed in transfected cells
Protocol: μ Opioid Receptor Binding Assay
A rat μ opioid receptor-expressing cell membrane preparation was prepared so that it contained 8.5 μg/mL of the membrane protein in a Tris buffer [50 mM Tris-HCl (pH7.8), 5 mM MgCl2, 1 mM EGTA, 0.1% BSA]. To this, [^3H]diprenorphine (diluted at the final concentration of 0.5 nM with the Tris buffer) and each test compound was added and the mixture was incubated at 25° C. for 60 minutes. Using a cell harvester and a washing solution [50 mM Tris-HCl (pH7.8), 4° C.], the membrane was recovered onto a GF/B filter which had been pretreated with 0.3% PEI, which was then washed further 3 times. The filter was transferred to a vial, to which a scintillator was added, and the radioactivity was measured using a liquid scintillation counter. Noted that a non-specific binding was regarded as a binding in the presence of […], and a specific binding was obtained by subtracting the non-specific binding from the total binding. From a ratio of binding inhibition in the presence of the tested substance, an IC50 value was obtained, and was then used together with the Kd value for [^3H]diprenorphine to calculate the Ki value for the tested substance.

T1 sequence (P41146 whole entry): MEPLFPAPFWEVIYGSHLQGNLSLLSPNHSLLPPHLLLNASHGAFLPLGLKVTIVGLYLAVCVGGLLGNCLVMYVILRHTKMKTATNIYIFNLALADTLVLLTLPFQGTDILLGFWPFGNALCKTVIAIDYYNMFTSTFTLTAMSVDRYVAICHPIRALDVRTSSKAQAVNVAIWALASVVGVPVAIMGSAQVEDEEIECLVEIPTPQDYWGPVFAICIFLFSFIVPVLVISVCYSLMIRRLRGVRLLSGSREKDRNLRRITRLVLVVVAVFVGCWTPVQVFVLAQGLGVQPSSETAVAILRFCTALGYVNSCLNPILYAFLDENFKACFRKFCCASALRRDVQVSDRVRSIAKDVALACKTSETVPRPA
T2 sequence (P33535 whole entry): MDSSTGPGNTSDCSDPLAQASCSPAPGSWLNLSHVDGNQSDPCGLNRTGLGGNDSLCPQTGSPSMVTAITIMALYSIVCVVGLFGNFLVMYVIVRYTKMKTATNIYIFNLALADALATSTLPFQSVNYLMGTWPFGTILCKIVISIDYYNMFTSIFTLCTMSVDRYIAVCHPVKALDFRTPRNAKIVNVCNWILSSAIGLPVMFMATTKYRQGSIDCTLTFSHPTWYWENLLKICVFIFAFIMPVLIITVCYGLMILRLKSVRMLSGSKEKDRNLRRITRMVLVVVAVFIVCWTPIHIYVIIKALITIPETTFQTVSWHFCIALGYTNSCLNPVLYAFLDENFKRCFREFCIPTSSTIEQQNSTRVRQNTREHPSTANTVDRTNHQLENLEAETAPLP

pKi [1] | pKi (rat μ opioid receptor) | Compound | Average number of scratching behavior (ICR male mice)
– | – | COc1ccc(NC(=O)c2nc(N[C@H]3CCCC[C@H]3NC(=N)N)c3cc(C)ccc3n2)cc1.Cl.Cl [Example 2, 4-[((1S,2R)-2-{[amino(imino)methyl]amino}cyclohexyl)amino]-N-(4-methoxyphenyl)-6-methylquinazoline-2-carboxamide dihydrochloride] | 7.25
– | – | Cc1ccc2nc(C(=O)NCCc3ccsc3)nc(N[C@H]3CCCC[C@H]3NC(=N)N)c2c1.Cl.Cl [Example 381, 4-[((1S,2R)-2-{[amino(imino)methyl]amino}cyclohexyl)amino]-6-methyl-N-[2-(3-thienyl)ethyl]quinazoline-2-carboxamide dihydrochloride] | 5.00
– | – | Cc1ccc2nc(C(=O)NC3CCCCCC3)nc(N[C@H]3CCCC[C@H]3NC(=N)N)c2c1.Cl.Cl [Example 364, 4-[((1S,2R)-2-{[amino(imino)methyl]amino}cyclohexyl)amino]-N-cycloheptyl-6-methylquinazoline-2-carboxamide dihydrochloride] | 5.17
9.17 | 6.26 | COc1ccc(C(=O)Nc2nc(N[C@H]3CCCC[C@H]3NC(=N)N)c3cc(C)ccc3n2)c(OC)c1.Cl.Cl [Example 6, N-{4-[((1S,2R)-2-{[amino(imino)methyl]amino}cyclohexyl)amino]-6-methylquinazolin-2-yl}-2,4-dimethoxybenzamide dihydrochloride] | 2.38
– | – | Cc1ccc2nc(C(=O)Nc3ccc(C)c(C)c3)nc(N[C@H]3CCCC[C@H]3NC(=N)N)c2c1.Cl.Cl [Example 52, 4-[((1S,2R)-2-{[amino(imino)methyl]amino}cyclohexyl)amino]-N-(3,4-dimethylphenyl)-6-methylquinazoline-2-carboxamide dihydrochloride] | 4.50
9.82 | 6.74 | Cc1ccc2nc(NC(=O)c3cc4ccccc4s3)nc(N[C@H]3CCCC[C@H]3NC(=N)N)c2c1.Cl.Cl [Example 1, N-{4-[((1S,2R)-2-{[amino(imino)methyl]amino}cyclohexyl)amino]-6-methylquinazolin-2-yl}-1-benzothiophene-2-carboxamide dihydrochloride] | 9.57
9.19 | 6.24 | COc1ccc2cc(C(=O)Nc3nc(N[C@H]4CCCC[C@H]4NC(=N)N)c4cc(C)ccc4n3)ccc2c1 [Example 7, N-{4-[((1S,2R)-2-{[amino(imino)methyl]amino}cyclohexyl)amino]-6-methylquinazolin-2-yl}-6-methoxy-2-naphthamide dihydrochloride] | –
9.24 | 6.17 | COc1ccc(C(=O)Nc2nc(N[C@H]3CCCC[C@H]3NC(=N)N)c3cc(C)ccc3n2)cc1.Cl.Cl [Example 12, N-{4-[((1S,2R)-2-{[amino(imino)methyl]amino}cyclohexyl)amino]-6-methylquinazolin-2-yl}-4-methoxybenzamide dihydrochloride] | 8.17
– | – | Cc1ccc2nc(C(=O)NCC(C)C)nc(N[C@H]3CCCC[C@H]3NC(=N)N)c2c1.Cl.Cl [Example 383, 4-[((1S,2R)-2-{[amino(imino)methyl]amino}cyclohexyl)amino]-N-isobutyl-6-methylquinazoline-2-carboxamide dihydrochloride] | 2.33
– | – | Cc1ccc2nc(C(=O)NCC(C)(C)C)nc(N[C@H]3CCCC[C@H]3NC(=N)N)c2c1.Cl.Cl [Example 29, 4-[((1S,2R)-2-{[amino(imino)methyl]amino}cyclohexyl)amino]-6-methyl-N-neopentylquinazoline-2-carboxamide dihydrochloride] | 1.67
9.85 | 6.59 | Cc1ccc2nc(NC(=O)c3cc4ccccc4o3)nc(N[C@H]3CCCC[C@H]3NC(=N)N)c2c1.Cl.Cl [Example 3, N-{4-[((1S,2R)-2-{[amino(imino)methyl]amino}cyclohexyl)amino]-6-methylquinazolin-2-yl}-1-benzofuran-2-carboxamide dihydrochloride] | 2.33
